Source: US20240201204A1, “Biomarker and Druggable Target of Neurodegeneration” (University Hospitals Cleveland Medical Center, priority 2020, published 2024)

Experiments:
clinically-diagnosed TBI = experiment: Pharmacoepidemiologic cohort analysis (MarketScan Medicare Supplemental database), incidence of TBI; assay type: in vivo, human; settings: vs. PS-matched aspirin cohort, Cox regression model, 6 years of follow-up
Source text: Because ac-tau has been generally reported in the brains of subjects with AD, we evaluated the relationship between salsalate or diflunisal use and incidence of clinically-diagnosed TBI or AD by analyzing 7.23 million U.S. commercially-insured individuals (MarketScan Medicare Supplemental database). We conducted two cohort analyses to evaluate the predicted association, based on individual level of longitudinal patient data and pharmacoepidemiologic methods, as previously established (Cheng et al., 2018). Thus, our two cohorts included: (1) salsalate vs. a matched aspirin population and (2) diflunisal vs. a matched aspirin population (Table 2). For each comparison, we estimated the un-stratified Kaplan-Meier curves and conducted propensity score (PS) stratified (n strata=10) log-rank tests and a Cox regression model after adjusting age, race, sex, and disease comorbidities (including diabetes, hypertension, and coronary artery disease) using a propensity score-matching method (Methods).
Study cohorts. The IBM® MarketScan® Medicare Supplemental Database is one of the first in the U.S. to profile the healthcare experience of retirees with Medicare supplemental insurance paid by employers. The MarketScan Medicare Supplemental Database provides detailed cost, use and outcomes data for healthcare services performed in both inpatient and outpatient settings. […]

IL-1β = IL-1β expression in cerebral cortex after TBI (qPCR); assay type: in vivo, mouse; settings: 25 mg/kg salsalate
Protocol: (§1) Drug preparation and administration: CGP3466B (Sigma-Aldrich, SML1941) was dissolved in DMSO and then diluted in sterile saline. The final working stock was 0.0014 mg/ml for administering the 0.014 mg/kg dose. Intraperitoneal administration of CGP3466B was initiated 15 min or 24 h after injury, and tissues were harvested 6 h (for SNO-GAPDH, SNO-SIRT1 measurement) or 2 weeks (for ac-tau measurement) later, respectively. Salsalate (AdipoGen, AG-CR1-3574) was dissolved in DMSO and then diluted in sterile PBS. The final working stocks were as follows: 2.5 mg/ml (25 mg/kg dose), 1 mg/ml (10 mg/kg dose), 0.5 mg/ml (5 mg/kg dose). Daily intraperitoneal administration of salsalate was initiated 24 hr after injury and continued throughout behavioral testing. P7C3-A20 and FK866 (Sigma-Aldrich, F8557) were first dissolved in 1 vol of DMSO, followed by addition of 4 vol of Kolliphor and vigorously vortexing. The solution was then diluted with 30 vol of filtered 5% dextrose (pH 7.0). EX527 (Selleckchem, S1541) was dissolved in 1% DMSO+30% polyethylene glycol+1% Tween 80. Daily intraperitoneal administration of P7C3-A20 was initiated 24 hr after poly-traumatic brain injury. EX527 (10 mg/kg) was administer once a day and FK866 was treated twice per day, with the first injection given at the same time as P7C3-A20 (20 mg/kg) and the second injection given 6 h later (LoCoco et al., 2017 eLife). […]

CCL2 = CCL2 expression in cerebral cortex after TBI (qPCR); assay type: in vivo, mouse; settings: 25 mg/kg salsalate
Protocol: as §1

p300/CBP = settings: literature (Shirakawa et al., 2016); cited from earlier work
[1] = Body weight during treatment after TBI; assay type: in vivo, mouse; settings: salsalate daily IP from 24 h after TBI
Protocol: Drug preparation and administration: CGP3466B (Sigma-Aldrich, SML1941) was dissolved in DMSO and then diluted in sterile saline. The final working stock was 0.0014 mg/ml for administering the 0.014 mg/kg dose. […] Salsalate (AdipoGen, AG-CR1-3574) was dissolved in DMSO and then diluted in sterile PBS. The final working stocks were as follows: 2.5 mg/ml (25 mg/kg dose), 1 mg/ml (10 mg/kg dose), 0.5 mg/ml (5 mg/kg dose). Daily intraperitoneal administration of salsalate was initiated 24 hr after injury and continued throughout behavioral testing. […] and FK866 (Sigma-Aldrich, F8557) were first dissolved in 1 vol of DMSO, followed by addition of 4 vol of Kolliphor and vigorously vortexing. The solution was then diluted with 30 vol of filtered 5% dextrose (pH 7.0). EX527 (Selleckchem, […]) was dissolved in 1% DMSO+30% polyethylene glycol+1% Tween 80. Daily intraperitoneal administration of […] was initiated 24 hr after poly-traumatic brain injury. EX527 (10 mg/kg) was administer once a day and FK866 was treated twice per day, with the first injection given at the same time as […] (20 mg/kg) and the second injection given 6 h later (LoCoco et al., 2017 eLife). […] The solution was then diluted with 7 vol of saline to the appropriate concentration for administration at 25, 50, or 100 mg/kg.

O=C(Oc1ccccc1C(=O)O)c1ccccc1O [salsalate]
hazard ratio [HR], clinically-diagnosed TBI (clinically-diagnosed TBI): 0.70
TBI-induced increase of IL-1β in cerebral cortex (IL-1β): this increase is not attenuated
TBI-induced increase of CCL2 in cerebral cortex (CCL2): this increase is not attenuated
inhibition of p300/CBP (p300/CBP): known inhibitor of rodent and human p300/CBP
body weight [1]: Body weight was not altered
